In article PMC2222910 (The Journal of General Physiology, 1999):

Target: T1, P2X2 purinoceptor (Rattus norvegicus, UniProt P49653)
T1 sequence (P49653 1-472): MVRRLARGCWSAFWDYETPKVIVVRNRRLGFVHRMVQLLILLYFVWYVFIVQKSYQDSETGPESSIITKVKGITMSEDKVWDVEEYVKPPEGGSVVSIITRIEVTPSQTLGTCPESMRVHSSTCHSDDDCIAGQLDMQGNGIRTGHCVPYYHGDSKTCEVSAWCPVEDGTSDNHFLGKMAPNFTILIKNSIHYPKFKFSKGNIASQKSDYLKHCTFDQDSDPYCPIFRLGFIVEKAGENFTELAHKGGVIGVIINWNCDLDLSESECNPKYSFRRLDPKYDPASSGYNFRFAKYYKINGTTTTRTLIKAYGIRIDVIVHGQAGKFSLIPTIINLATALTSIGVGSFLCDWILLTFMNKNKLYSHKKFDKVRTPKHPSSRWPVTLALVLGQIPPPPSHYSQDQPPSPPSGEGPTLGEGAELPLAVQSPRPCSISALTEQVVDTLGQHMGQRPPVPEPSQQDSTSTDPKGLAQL
Assay: single channel patch clamp of outside-out patches, Xenopus oocytes
Format: cell-based

EC50: 11.2 µM
SMILES: Nc1ncnc2c1ncn2[C@@H]1O[C@H](COP(=O)(O)OP(=O)(O)OP(=O)(O)O)[C@@H](O)[C@H]1O [ATP]
